Results as given in a melting point compilation (Tetko et al.; mined from patent text by program, amines drawn as free bases though some values may be those of a salt).

`COc1ccc(COCc2nnc3n2-c2ccc(Cl)cc2C(c2ccccc2Cl)=NC3)cc1` showed a melting point of 235 to 237 °C.
Work on `O=[N+]([O-])c1cc(Cl)c(OCc2ccccc2-c2ccccc2)c(Cl)c1` yielded a melting point of 83 to 84.5 °C.
`Cc1cc(Cc2cnc(NCCCCc3ncc(Br)cc3C)[nH]c2=O)cnc1CO` showed a melting point of 136 to 141 °C.
For `CCOc1ccc(CC(NC(C)=O)C(=O)O)cc1OCC` (centres undefined), the melting point was 149 to 151 °C.
For `CCCCCCCCCCCCc1ccc(C(OC(C)=O)C(COC(C)=O)NC(C)=O)s1` (centres undefined), the melting point was 105 to 107 °C.
Work on `CCn1c(COC(=O)NC(=O)c2cc(Cl)cc(Cl)c2)nc(C(C)C)c1Sc1cc(Cl)cc(Cl)c1` yielded a melting point of 124 to 125 °C.
`CCn1cc(C(=O)O)c(=O)c2cc(F)c(O)cc21` showed a melting point greater than 250 °C.
`COc1cc(OC)c([C@@H]2CCCC[C@H]2O)c(O)c1C(C)=O` (relative stereo) gave a melting point of 162 to 164 °C.
`CCCCCCS(=O)(=O)c1ccc(N)cc1` showed a melting point of 95 to 97 °C.
`CCc1noc(=O)n1C(=O)NC` showed a melting point of 82 °C.
Compound `O=C(O)C(=O)c1ccc(OCC(=O)C2CCCCCCC2)cc1` has a melting point of 109 to 110 °C.
`COC(=O)c1sc(Cl)c(Cl)c1O` gave a melting point of 107 to 108 °C.
`OC1CCCc2nc3ccccc3c(NCc3cccc(F)c3)c21` (centres undefined) showed a melting point of 128 °C.
`CCN(CC)CCCC1CCCCN1C(=O)N1c2ccccc2C(=O)Nc2cccnc21` (centres undefined) gave a melting point of 125 to 128 °C.
`COc1cc2c(c3c1OC(C)(C)C3)C(c1cccc(N(CC(N)=O)S(C)(=O)=O)c1)=NC(C)(C)C2` gave a melting point of 190 to 191 °C.
In the case of `CNC1=NS(=O)N=C1NCCSCc1csc(NC(=N)N)n1` (centres undefined), the melting point is reported as 175 to 177 °C.
Compound `O=C(O)c1cc2c(F)c(F)c(F)c(F)c2s1` has a melting point of 200 °C.
In the case of `CCc1oc2ccccc2c1C(=O)NCc1ccc2c(Br)c(OCC#N)ccc2c1`, the melting point is reported as 181 to 183 °C.
In the case of `O=C(Sc1ccc(O)cc1)c1ccc(CSc2ccc(O)cc2)cc1`, the melting point is reported as 202 to 209 °C.
Compound `COc1ccc2c(c1)C(C)(C)NC(=O)O2` has a melting point of 178 to 180 °C.
In the case of `COc1ccccc1N1CCN(CCN(C(=O)C2CCCCC2)c2ccccc2[N+](=O)[O-])CC1`, the melting point is reported as 119 to 121 °C.
Work on `OCC(O)C1OC(Sc2ccccc2)C(O)C1O` (centres undefined) yielded a melting point of 105 to 107 °C.
With `O=C(O)c1csnc1-c1ccc(C(F)(F)F)cc1` the melting point was 195 to 196 °C.
In the case of `COc1cc(C(=O)O)ccc1OC(=O)c1ccc(OC)c(C23CC4CC(CC(C4)C2)C3)c1`, the melting point is reported as 282 to 284 °C.
With `O=C(Nc1cccc2c1C(=O)N(CCC(=O)N1CCN(c3ccncc3)CC1)C2=O)c1ccc(Cl)s1` the melting point was 167 °C.
In the case of `CC(=O)OC1C(=O)NC1c1ccco1` (centres undefined), the melting point is reported as 118 to 119 °C.
With `OCCN1CCN(C2=Nc3ccccc3Oc3cscc32)CC1` the melting point was 187 to 192 °C.
For `CCN[C@@H]1CCCC[C@H]1NS(=O)(=O)c1ccc(C)cc1` (relative stereo), the melting point was 112 to 114 °C.
Compound `CCNc1cc(NS(=O)(=O)c2ccc(C(C)(C)C)cc2)nc(NCC)n1` has a melting point of 316 to 318 °C.
`CCOC(=O)c1ccc2nccn2c1` gave a melting point of 93 to 94 °C.
`CCc1cc(C=Cc2nc3ccccc3o2)c(=O)[nH]c1C` gave a melting point of 262 to 264 °C.
Work on `O=C(c1ccc(C(F)(F)F)cc1Sc1ccccc1)c1cnoc1C1CC1` yielded a melting point of 115 °C.
For `COc1cc2ncc(NC(=O)C=Cc3cc(OC)c(OC(C)=O)c(OC)c3)c(-c3ccccc3)c2cc1OC`, the melting point was 256 to 257 °C.
With `CC(=O)NCC1CC(c2ccc(-n3ccc(C=NO)c3)c(F)c2)=NO1` (single isomer, unassigned; (-)) the melting point was 216 to 217 °C.
Work on `CNc1nc(-c2cccc(NC(=O)C3CC3)c2)c2cc(OC)c(OC)cc2n1` yielded a melting point of 205 to 207 °C.
For `CCc1nc2c(N)nc3ccccc3c2n1CCCS(C)(=O)=O`, the melting point was greater than 250 °C.
`COc1cc2cc(CO)c(CO)c(-c3cccc(Br)n3)c2cc1OC` gave a melting point of 107 to 108 °C.
For `CCC(Oc1ccc(C(C)(C)CC)cc1C(C)(C)CC)C(=O)Nc1ccc(Cl)c(NC(=O)CC(=O)C(C)(C)Sc2ccccc2)c1` (centres undefined), the melting point was 73 to 75 °C.
Compound `COc1cccc(C=N[C@H](C)c2ccc([N+](=O)[O-])cc2)c1O` has a melting point of 88 to 90 °C.
`Cc1nc2cc(C)c(OCC(C)(C)CS(N)(=O)=O)nn2n1` gave a melting point of 217 to 218 °C.
`Oc1nc(O)c2occc2n1` gave a melting point of 233 °C.
Compound `CC(C)c1n[nH]c2c(NCc3ccc(O)cc3)ncnc12` has a melting point of 234 to 236 °C.
For `CSc1ccc(C(CC2CCCO2)C(=O)O)cc1` (centres undefined), the melting point was 105 to 107 °C.
In the case of `O=c1cc(C(F)(F)F)[nH]n1-c1cccc([N+](=O)[O-])c1`, the melting point is reported as 166 °C.
For `CSC(=N[N+](=O)[O-])NCc1ccc(Cl)nc1`, the melting point was 140 to 142 °C.
In the case of `COc1cc(OC)nc(NC(=O)NS(=O)(=O)Nc2ccccc2C(O)C2CC2)n1` (centres undefined), the melting point is reported as 66 to 69 °C.
Compound `CC(Sc1cc(C(C)(C)C)c(O)c(C(C)(C)C)c1)C(=O)O` (centres undefined) has a melting point of 110 to 113 °C.
For `O=C(NC(=NCCCOc1ccccc1)Oc1ccccc1)c1ccccc1`, the melting point was 75 °C.
`COCOCc1nc(N)c2ncc(OC)nc2n1` showed a melting point of 193 to 195 °C.
Work on `CC(C)C(OC(=O)NC(C)(Cc1ccccc1)C(=O)NC(Cc1ccc(O)cc1)C(=O)NCCCCCCCO)c1ccccc1` (centres undefined) yielded a melting point of 70 to 76 °C.
For `COC(=O)c1cc2ccoc2s1`, the melting point was 86 to 88 °C.
`COCOCc1nc(-c2ccccc2)oc1CO` showed a melting point of 70 to 71 °C.
Compound `NC(=O)c1nc(-c2cccc(C3=Nc4ccc(-n5cccc5)cc4NC(=O)C3)c2)cs1` has a melting point of 267 to 269 °C.
With `C/C(=C\C=C\C#N)c1ccc(OCc2nc(-c3ccccc3)oc2C)cc1` the melting point was 134 to 136 °C.
`O=c1c(OCc2nnn[nH]2)coc2ccccc12` gave a melting point of 194 to 196 °C.
For `OC(Cc1ccc(Cl)cc1Cl)(Cn1ccnc1)c1ccc(F)cc1` (centres undefined), the melting point was 178 to 179 °C.
`CCOCC1(C)CCCOc2cc(C#Cc3ccc(C(=O)O)cc3)ccc21` (centres undefined) showed a melting point of 170 to 171 °C.
Work on `Cc1cc(Cl)cc(Cl)c1S(=O)(=O)Nc1nc(CC(=O)N2CCOCC2)c(C)s1` yielded a melting point of 186 to 187 °C.
`O=C(O)[C@@H](O)CNC(=O)C(F)(F)F` showed a melting point of 142 to 143 °C.
Compound `O=[N+]([O-])c1cnc2sccc2c1Cl` has a melting point of 110 to 113 °C.
Work on `Cn1c(=O)ccc2cc(COc3cc(F)cc(C4CCOCC4)c3)ccc21` yielded a melting point of 126 to 127 °C.
`CC(C)c1ccc(N(Cc2ccc(OCC(F)(F)F)cc2)C(=O)Nc2c(C(C)C)cccc2C(C)C)cc1` gave a melting point of 138 °C.
`COc1ccc2c(c1)CC(N(C)CCCNC(=O)Cc1cc(OC)c(OC)cc1[N+](=O)[O-])CC2` (centres undefined) showed a melting point of 116 to 118 °C.
Compound `COc1cccc(-c2nn(Cc3ccccc3)c(N)c2C#N)c1` has a melting point of 147 to 149 °C.
In the case of `O=C(NC1CCCCC1)c1ccc(-c2cnc(-c3ccc(NC(=O)c4ccccn4)cc3)[nH]2)cc1`, the melting point is reported as 250 to 252 °C.
Compound `COc1ccc(C(=O)/C(Cc2cc(OC)c(OC)c(OC)c2)=C(/C(=O)O)c2ccc3c(c2)OCO3)cc1` has a melting point of 192 to 193 °C.
Work on `COc1ccc(Br)c(/C=C/c2cc(/C=C/c3ccc4cc[nH]c4c3)[nH]n2)c1` yielded a melting point of 103 to 109 °C.
For `CNC(=O)c1ccc(CCN2CC=C(c3c[nH]c(-c4ccc(F)cc4)c3-c3ccncc3)CC2)cc1`, the melting point was 231 to 233 °C.
In the case of `Fc1ccc(-n2c3c(c4cc(F)ccc42)CNCC3)cc1`, the melting point is reported as 126 to 129 °C.
`COc1ccc(-c2cc(CO)c(=O)n(Cc3ccc(F)c(F)c3)n2)cc1F` showed a melting point of 154 to 156 °C.
Work on `CCCN(CCC)C1CCc2cc(NC(C)=O)ccc2C1` (centres undefined) yielded a melting point of 119 to 121 °C.
In the case of `CC(=O)c1ccc2c(c1)ncn2-c1cccc(N2CCN(C(C)=NO)CC2)c1`, the melting point is reported as 193 to 195 °C.
Work on `CC1(C)CC(c2ccccc2)=NC1=Cc1ccccc1` yielded a melting point of 101 to 103 °C.
`O=C(CN1C(=O)c2ccccc2C1=O)c1cc(O)c(O)c([N+](=O)[O-])c1` gave a melting point of 214 to 216 °C.
In the case of `Cc1ncccc1NC(=NC#N)NC(NC(=O)Cc1ccc(Cl)cc1)C(C)(C)C` (centres undefined), the melting point is reported as 180 to 181 °C.
Work on `NCC(O)CN1CCC(C2(c3ccc(F)cc3)OCCO2)CC1` (centres undefined) yielded a melting point of 132 to 136 °C.
`N#Cc1cc([N+](=O)[O-])ccc1N1CCOCC1` showed a melting point of 138 to 140 °C.
In the case of `CC(C)n1nc(-c2c(-c3ccccc3)nc(N)nc2N2CCCC2)ccc1=O`, the melting point is reported as greater than 300 °C.
`O=C(O)CSCc1cc2c(cc1Cc1ccccc1)OCO2` gave a melting point of 99.5 to 100 °C.
Compound `Cc1ncc([N+](=O)[O-])n1CCN1C(=O)c2cccc([N+](=O)[O-])c2C1=O` has a melting point of 175 to 176 °C.
With `CCOC(=O)CCCOc1ccc(N2CCN(c3ccncc3)CC2)cc1` the melting point was 84 to 85 °C.
`CC(C)c1nc(O)c(Br)c(O)n1` showed a melting point greater than 250 °C.
With `CCOC(=O)/C=C(C)/C(F)=C/C=C(C)/C=C/c1c(C)sc(C)c1C` the melting point was 73 to 75 °C.
With `CC(C)[C@@H](NS(=O)(=O)c1ccc2ccccc2c1)C(=O)O` the melting point was 170 to 172 °C.
Work on `ON=C(Cn1ccnc1)c1ccc(Cl)cc1` yielded a melting point of 185 to 186 °C.
`O=C1CC2(c3ccccc3)CCCC2C(=O)N1Cc1ccccc1` (centres undefined) showed a melting point of 77 to 79 °C.
For `C=CCn1c(=O)c2c(nc(/C=C/c3ccc(OC(C)=O)c(OC)c3)n2C)n(CC=C)c1=O`, the melting point was 207 to 208 °C.
Compound `C[C@H]1CCCC(C)(C)[C@@H]1[C@H](O)c1ccccc1` has a melting point of 32 to 34 °C.
`COc1cc(Cl)cc2c1OC(COS(=O)(=O)c1ccc(C)cc1)C2` (centres undefined) showed a melting point of 99 to 102 °C.
For `CCC(=O)Oc1ccc(-c2nn(C3CCCC3)c3c(F)cccc23)cc1`, the melting point was 60 to 61 °C.
With `Cc1c(C(F)(F)F)noc1NS(=O)(=O)c1ccc(-c2ccccc2)cc1` the melting point was 139 to 140 °C.
With `COC(=O)c1ccc2cc(-c3ccc(C(C)(C)C)cc3)oc2c1` the melting point was 148 °C.
In the case of `c1csc(-c2cnc(COc3ccc(CCCn4ccnc4)cc3)o2)c1`, the melting point is reported as 75 to 76 °C.
For `COc1cc2c(cc1OC)-c1cc3ccccc3nc1CC2`, the melting point was 55 to 56 °C.
`Cc1cccc(/C=C/c2nc(COc3ccc(CCCCn4ccnc4CC(O)CO)cc3)co2)c1` (centres undefined) showed a melting point of 102 to 104 °C.
`CCC(=CC(CNC(=O)c1cccnc1O)=NO)C(C)[N+](=O)[O-]` (centres undefined) showed a melting point of 92 to 95 °C.
With `c1cncc(CC2(Cc3cccnc3)c3ccccc3-c3ccccc32)c1` the melting point was 137 to 138 °C.
For `O=C(/C=C/c1ccc(Cl)cc1)N1CCN(C(=O)c2cc(C(F)(F)F)cc(C(F)(F)F)c2)[C@H](Cc2c[nH]c3ccccc23)C1`, the melting point was 125 to 138 °C.
Compound `CC(C)C(=O)OC1C(n2ccc(=O)[nH]c2=O)OC(COC(=O)c2ccc(Cl)cc2)C1(C#C[Si](C)(C)C)OC(=O)C(C)C` (centres undefined) has a melting point of 160 to 161 °C.
